Data taken from patent publication US11260047B2, “Formulations of AG10” (Eidos Therapeutics, Inc., priority 2018, dated 2022).

Experiments:
Type in all cases: in vivo
[1] = Pharmacokinetics of AG10 in dogs, oral gavage, Study No. 1; conditions: both sexes, dog, plasma
Experimental: Pharmacokinetics of AG10 were determined when administered once daily to dogs via oral gavage at 20, 60, and 200 mg/kg for 3 days (Study No. 1). Each group consisted of two animals/sex/group. Blood samples were collected from each animal on Day 1 at pre-dose, 0.25, 0.5, 1, 2, 4, 8, 12 and 24 hours post-dose, Day 3 at pre-dose, 0.25, 0.5, 1, 2, 4, 8, 12, 24, 48 and 72 hr post-dose. Plasma samples were assayed for AG10 by LC-MS/MS. In general, no sex differences in AG10 mean Cmax and AUC0-24 values were observed; therefore, results for the 20 mg/kg dose group are presented as combined sex values in Table 1 below.

[2] = Pharmacokinetics of AG10 tablets and capsule given orally to male beagle dogs, Study No. 3; conditions: for Tmax / Cmax / AUC(0-t): male, beagle, dog, plasma, po; for Tmax: dogs, read-out: time to maximal concentration (T max); for Cmax / AUC(0-t): male dogs; for AUC(0-t): read-out: AUC0-24
Experimental: AG10 was administered orally to 4 male beagle dogs each as a 50 mg tablet, 200 mg tablet, and a 200 mg capsule (No. 3). Blood samples were collected at pre-dose and approximately 0.25, 0.5, 1, 2, 4, 8, 24, 48, 72 and 96 hours post-dose. Plasma samples were assayed for AG10 by LC-MS/MS.

[3] = Pharmacokinetics of AG10 after oral administration in beagle dogs, Study No. 2; conditions: both sexes, dog, plasma, 20 mg/kg; for Cmax / AUC(0-t): 20 mg/kg oral, sex MF; for AUC(0-t): read-out: AUC0-24; for Tmax: read-out: time to maximal concentration (T max)
Experimental: The pharmacokinetics of AG10 were also determined following oral administration in non-naïve male and female beagle dogs (Study No. 2). The study design included three treatment groups (n=2/sex/group). Groups 1 and 2 received 5 mg/kg and 20 mg/kg AG10 in 0.5% methylcellulose (MC) formulations respectively. Group 3 animals received 20 mg/kg AG10 in gelatin capsule form. Blood samples were collected at pre-dose and approximately 2, 4, 6, 8, 12, and 24 hours post-dose. Plasma samples were assayed for AG10 by LC-MS/MS. Plasma exposures (AUC0-24) of AG10 in dogs administered 20 mg/kg AG10 as a suspension in 0.5% methylcellulose were similar to those obtained in Study No. 1 (Table 1). Plasma exposures of AG10 were also similar in dogs which were administered the same dose of AG10 either as a suspension in 0.5% methylcellulose or as a gelatin capsule without any excipients.

[4] = gelatin capsule without excipients

Cmax ([1]; 0.5% MC formulation, 20 mg/kg oral gavage, sex MF combined): 16100 ng/mL
AUC(0-t) ([1]; 0.5% MC formulation, 20 mg/kg oral gavage, sex MF combined, read-out: AUC0-24): 69100 ng·h/mL
Tmax ([1]; po, 20 mg/kg, methylcellulose formulation, read-out: time to maximal concentration (T max)): 0.44 ± 0.38 h
Tmax ([2]; 50 mg, 50 mg tablets): 0.5 h
Cmax ([2]; 50 mg, tablet 50 mg oral): 4660 ng/mL
AUC(0-t) ([2]; 50 mg, tablet 50 mg oral): 41500 ng·h/mL
Tmax ([2]; 200 mg, 200 mg capsules with excipient): 1.38 ± 0.75 h
Tmax ([2]; 200 mg, 200 mg tablets): 1 h
Cmax ([2]; 200 mg, capsule 200 mg oral): 9330 ng/mL
AUC(0-t) ([2]; 200 mg, capsule 200 mg oral): 65700 ng·h/mL
Cmax ([2]; 200 mg, tablet 200 mg oral): 13000 ng/mL
AUC(0-t) ([2]; 200 mg, tablet 200 mg oral): 88000 ng·h/mL
Cmax, 200 mg tablets compared with 200 mg capsules ([2]; unpaired t-test, P value 0.0788): not significantly different
AUC0-inf, 200 mg tablets compared with 200 mg capsules ([2]; unpaired t-test, P value 0.0995): not significantly different
Cmax ([3]; 0.5% MC formulation): 8100 ng/mL
AUC(0-t) ([3]; 0.5% MC formulation): 71200 ng·h/mL
Tmax ([3]; capsule formulated without excipients): 2 h
Cmax [3, 4]: 10300 ng/mL
AUC(0-t) [3, 4]: 89300 ng·h/mL
Tmax ([3]; methylcellulose formulation): 2.5 ± 1 h
SMILES: Cc1n[nH]c(C)c1CCCOc1cc(C(=O)O)ccc1F [AG10, 3-(3-(3,5-dimethyl-1H-pyrazol-4-yl)propoxy)-4-fluorobenzoic acid]
